Where a name gives a salt, the structure may show the parent alone. Read-outs that look alike come from different tables or passages of the source.
What was measured:
P. aeruginosa = experiment: MIC, 96-well CAMHB, 10^5 to 10^2 CFU/mL in 24 hours; type: cell-based, Pseudomonas aeruginosa; settings: for MIC: Pseudomonas aeruginosa
Protocol: (§1) To determine the MIC of polyamine compounds, the protocol described herein was used.
(§2) In brief, a 0.5 McFarland of each bacterial isolate was made. A 0.5 McFarland is a measure of turbidity in a liquid sample that contains approximately 1×10^∧8 CFU/mL. The 0.5 McFarland standard was diluted in cation adjusted Mueller Hinton Broth (CAMHB), and 50 μL of broth were added to a well of a 96-well plate. In addition, 50 μL of CAMHB that contained a desired concentration of antimicrobial were also added to the well for a final volume of 100 μL and a final concentration of approximately 5×10^4 CFU/well (which equated to approximately 5×10^5 CFU/mL). Each well contained a desired amount of polyamine compound in order to experimentally determine the MIC. Each 96-well plate was incubated at 37° C. for 24 hours. The contents of each well were plated on tryptic soy agar (TSA). TSA plates were incubated for 37° C. for 24 hours after which the number of CFU were counted and used to calculate the CFU/mL that remained after exposure to varying concentrations of compound. This procedure was repeated n=8 times for each concentration of antimicrobial.

A. baumannii = experiment: as above; type: cell-based, Acinetobacter baumannii; settings: Acinetobacter baumannii, read-out: MIC (A. bumannii)
Protocol: as §1, §2
A 0.5 McFarland of A. baumannii is made. A 0.5 McFarland is a measure of turbidity in a liquid sample that contains approximately 7.5×10^7 CFU/mL. The 0.5 McFarland standard is diluted in CAMHB and 50 μL of broth is added to a well of a 96-well plate. In addition, 50 μL of CAMHB that contains a desired concentration of antimicrobial is added to the well for a final volume of 100 μL and a final concentration of approximately 5×10^4 CFU/well (which equates to approximately 5×10^5 CFU/mL). Each well contains a desired amount of CZ compound in order to experimentally determine the MIC. Each 96-well plate is incubated at 37° C. for 24 hours. The contents of each well is plated on tryptic soy agar (TSA). TSA plates is incubated at 37° C. for 24 hours after which the number of CFUs is counted and used to calculate the CFU/mL that remain after exposure to varying concentrations of compound. This procedure is repeated n=8 times for each concentration of antimicrobial. […]

MRSA = experiment: as above; type: cell-based, Staphylococcus aureus; settings: Staphylococcus aureus, MRSA, read-out: MIC (MRSA)
Protocol: as §1
as §2, with “antimicrobial. […]” for “antimicrobial.”

L-929 cells (ATCC CCL-1) = experiment: Minimal Essential Media (MEM) Elution cytotoxicity test; type: cell-based
Protocol: Summary: The Minimal Essential Media (MEM) Elution test was designed to determine the cytotoxicity of extractable substances. The test article was added to cell monolayers and incubated. The cell monolayers were examined and scored based on the degree of cellular destruction.
Acceptance Criteria: The United States Pharmacopeia & National Formulary (USP <87>) states that the test article meets the requirements, or receives a passing score (Pass) if the reactivity grade is not greater than grade 2 or a mild reactivity.
Acceptance criteria were based upon the negative and media controls receiving “0” reactivity grades and positive controls receiving a 3-4 reactivity grades (moderate to severe).
The cell monolayers were examined microscopically. The wells were scored as to the degree of discernable morphological cytotoxicity on a relative scale of 0 to 4:
The results from the three wells were averaged to give a final cytotoxicity score.
[…] This initial concentration was then diluted 1: 2, 1:4, 1:8, and 1:16. Multiple well cell culture plates were seeded with a verified quantity of industry standard L-929 cells (ATCC CCL-1) and incubated until approximately 80% confluent. The test articles and control extracts were added to the cell monolayers in triplicate. The cells were incubated at 37±1° C. with 5±1% CO2 for 48±3 hours.

[1] = Table 5, read-out: MIC (P. aeruginosa)
[2] = Table 10A, dilution 1:2 of 25 μg/mL
[3] = Table 10A, dilution 1:4 of 25 μg/mL
[4] = Table 10A, dilution 1:8 of 25 μg/mL
[5] = Table 10A, dilution 1:16 of 25 μg/mL
[6] = read-out: MIC (P. aeruginosa), Table 5

## NCCCNCCCNCc1cc(CNCCCNCCCN)cc(-c2c(CNCCCNCCCN)cccc2CNCCCNCCCN)c1 [CZ-60]
P. aeruginosa; [1]
  MIC: > 100 µM
A. baumannii; Table 5
  MIC: > 100 µM
MRSA; Table 5
  MIC: < 50 µM

## NCCCNCCCNCc1cccc(-c2cc(CNCCCNCCCN)cc(CNCCCNCCCN)c2)c1 [CZ-62, N^1,N^1′,N^1″-([1,1′-biphenyl]-3,3′,5-triyltris(methylene))tris(N^3-(3-aminopropyl)propane-1,3-diamine), hydrochloride salt]
L-929 cells (ATCC CCL-1); Table 10A, 25 μg/mL
  Results Pass/Fail: Fail (a numerical grade greater than 2 is considered a cytotoxic effect, or a failing score (Fail))
L-929 cells (ATCC CCL-1); [2]
  Results Pass/Fail: Fail (a numerical grade greater than 2 is considered a cytotoxic effect, or a failing score (Fail))
L-929 cells (ATCC CCL-1); [3]
  Results Pass/Fail: Fail (a numerical grade greater than 2 is considered a cytotoxic effect, or a failing score (Fail))
L-929 cells (ATCC CCL-1); [4]
  Results Pass/Fail: Pass (receives a passing score (Pass) if the reactivity grade is not greater than grade 2 or a mild reactivity)
L-929 cells (ATCC CCL-1); [5]
  Results Pass/Fail: Pass (receives a passing score (Pass) if the reactivity grade is not greater than grade 2 or a mild reactivity)
A. baumannii
  MIC: < 50 µM

## Cc1ccccc1-c1cc(CNCCCNCCCN)cc(CNCCCNCCCN)c1 [CZ-63, N^1,N^1′-((2′-methyl-[1,1′-biphenyl]-3,5-diyl)bis(methylene))bis(N^3-(3-aminopropyl)propane-1,3-diamine), hydrochloride salt]
A. baumannii
  MIC: < 50 µM

## NCCCNCCCNCc1ccc(-c2cc(CNCCCNCCCN)cc(CNCCCNCCCN)c2)cc1 [CZ-65, N^1,N^1′,N^1″-([1,1′-biphenyl]-3,4′,5-triyltris(methylene))tris(N^3-(3-aminopropyl)propane-1,3-diamine), hydrochloride salt]
L-929 cells (ATCC CCL-1); Table 10A, 25 μg/mL
  Results Pass/Fail: Fail (a numerical grade greater than 2 is considered a cytotoxic effect, or a failing score (Fail))
L-929 cells (ATCC CCL-1); [2]
  Results Pass/Fail: Fail (a numerical grade greater than 2 is considered a cytotoxic effect, or a failing score (Fail))
L-929 cells (ATCC CCL-1); [3]
  Results Pass/Fail: Pass (receives a passing score (Pass) if the reactivity grade is not greater than grade 2 or a mild reactivity)
L-929 cells (ATCC CCL-1); [4]
  Results Pass/Fail: Pass (receives a passing score (Pass) if the reactivity grade is not greater than grade 2 or a mild reactivity)
L-929 cells (ATCC CCL-1); [5]
  Results Pass/Fail: Pass (receives a passing score (Pass) if the reactivity grade is not greater than grade 2 or a mild reactivity)
A. baumannii
  MIC: < 50 µM

## NCCCNCCCNCc1cc(CNCCCNCCCN)cc(CNCCCNCCCN)c1 [CZ-55]
P. aeruginosa; [1]
  MIC: < 50 µM
A. baumannii; Table 5
  MIC: > 100 µM
MRSA; Table 5
  MIC: < 50 µM

## CCCCC(CC)COc1cc(CNCCCNCCCN)cc(CNCCCNCCCN)c1 (stereo not drawn) [CZ-81, N^1,N^1′-((5-((2-ethylhexyl)oxy)-1,3-phenylene)bis(methylene))bis(N^3-(3-aminopropyl)propane-1,3-diamine), hydrochloride salt]
P. aeruginosa; [6]
  MIC: < 50 µM
A. baumannii
  MIC: < 50 µM
MRSA
  MIC: < 50 µM

## CCCCCCCCNCCCNCCCNCc1cc(CNCCCNCCCNCCCCCCCC)cc(OCC2CCCCC2)c1 [CZ-103, N^1,N^1′-((5-(cyclohexylmethoxy)-1,3-phenylene)bis(methylene))bis(N^3-(3-(octylamino)propyl)propane-1,3-diamine)]
P. aeruginosa; [1]
  MIC: < 50 µM
A. baumannii; Table 5
  MIC: < 50 µM
MRSA; Table 5
  MIC: < 50 µM

## NCCCCCCCCCCCCNCc1cccc(CNCCCCCCCCCCCCN)c1 [CZ-21, N^1,N^1′-(1,3-phenylenebis(methylene))bis(dodecane-1,12-diamine), hydrochloride salt]
A. baumannii
  MIC: > 100 µM
MRSA
  MIC: < 50 µM

## CCCCNCCCNCCCNCc1cc(CNCCCNCCCNCCCC)cc(-c2ccccc2)c1 [CZ-83, N^1,N^1′-([1,1′-biphenyl]-3,5-diylbis(methylene))bis(N^3-(3-(butylamino)propyl)propane-1,3-diamine), hydrochloride salt]
P. aeruginosa; [6]
  MIC: < 50 µM
A. baumannii
  MIC: < 50 µM
MRSA
  MIC: < 50 µM

## CC(C)CNCCCNCCCNCc1cccc(-c2cc(CNCCCNCCCNCC(C)C)cc(CNCCCNCCCNCC(C)C)c2)c1 [CZ-99, N^1,N^1′,N^1″-([1,1′-biphenyl]-3,3′,5-triyltris(methylene))tris(N^3-(3-(isobutylamino)propyl)propane-1,3-diamine)]
L-929 cells (ATCC CCL-1); Table 11A, 25 μg/mL
  Results Pass/Fail: Pass (receives a passing score (Pass) if the reactivity grade is not greater than grade 2 or a mild reactivity)
L-929 cells (ATCC CCL-1); Table 11A, dilution 1:2 of 25 μg/mL
  Results Pass/Fail: Pass (receives a passing score (Pass) if the reactivity grade is not greater than grade 2 or a mild reactivity)
L-929 cells (ATCC CCL-1); Table 11A, dilution 1:4 of 25 μg/mL
  Results Pass/Fail: Pass (receives a passing score (Pass) if the reactivity grade is not greater than grade 2 or a mild reactivity)
L-929 cells (ATCC CCL-1); Table 11A, dilution 1:8 of 25 μg/mL
  Results Pass/Fail: Pass (receives a passing score (Pass) if the reactivity grade is not greater than grade 2 or a mild reactivity)
L-929 cells (ATCC CCL-1); Table 11A, dilution 1:16 of 25 μg/mL
  Results Pass/Fail: Pass (receives a passing score (Pass) if the reactivity grade is not greater than grade 2 or a mild reactivity)
P. aeruginosa; Table 5
  MIC (P. aeruginosa): ++ to +++
MRSA; Table 5
  MIC: < 50 µM

## NCCCNCCCNCCCNCc1cc(CNCCCNCCCNCCCN)cc(-c2ccccc2)c1 [CZ-73, N^1,N^1′-([1,1′-biphenyl]-3,5-diylbis(methylene))bis(N^3-(3-((3-aminopropyl)amino)propyl)propane-1,3-diamine), hydrochloride salt]
A. baumannii
  MIC: 50 to 100 µM

## NCCCNCCCNCc1cc(CNCCCNCCCN)cc(-c2ccc3c(c2)OCO3)c1 [CZ-61, N^1,N^1′-((5-(benzo[d][1,3]dioxol-5-yl)-1,3-phenylene)bis(methylene))bis(N^3-(3-ammoniopropyl)propane-1,3-diaminium) chloride]
A. baumannii
  MIC: < 50 µM
